Measured values as given in patent US6358885B1, “Substituted phenylheterocyclic herbicides” (Mississippi State University, priority 1992, dated 2002).

Assays:
Assay in all cases: Test F preemergence/postemergence greenhouse plant response rating 0 to 100
speedwell = type: in vivo, Veronica persica; details: PREEMERGENCE, Rate 250 g/ha, 0 to 100 scale
Text: (§1) Compounds evaluated in this test were formulated in a non-phytoxic solvent and applied to the soil surface before plant seedlings emerged (preemergence application) and to plants that were in the one-to-four leaf stage (postemergence application). A sandy loam soil was used for the preemergence test while a mixture of sandy loam soil and greenhouse potting mix in a 60:40 ratio was used for the postemergence test. Test compounds were applied within approximately one day after planting seeds for the preemergence test. Plantings of these crops and weed species were adjusted to produce plants of appropriate size for the postemergence test. All plant species were grown using normal greenhouse practices. Crop and weed species include winter barley (Hordeum vulgare cv. ‘Igri’), blackgrass (Alopecurus myosuroides), chickweed (Stellaria media), downy brome (Bromus tectorum), field violet (Viola arvensis), galium (Galium aparine), green foxtail (Setaria viridis), kochia (Kochia scoparia), lambsquarters (Chenopodium album), speedwell (Veronica persica), rape (Brassica napus), ryegrass (Lolium multiflorum), sugar beet (Beta vulgaris cv. ‘USl’), sunflower (Helianthus annuus cv. ‘Russian Giant’), spring wheat (Triticum aestivum cv. ‘ERA’), winter wheat (Triticum aestivum cv. ‘Talent’), wild buckwheat (Polygonum convolvulus), wild mustard (Sinapis arvensis), wild oat (Avena fatua), and wild radish (Raphanus raphanistrum). Blackgrass, galium and wild oat were treated at two growth stages. […] Treated plants and untreated controls were maintained in a greenhouse for approximately 21 to 28 days, after which all treated plants were compared to untreated controls and visually evaluated. […] A dash response (-) means no test result.

winter barley = type: in vivo, Hordeum vulgare cv. ‘Igri’; details: 0 to 100 scale
Text: as §1

chickweed = type: in vivo, Stellaria media; details: 0 to 100 scale
Text: as §1

lambsquarters = type: in vivo, Chenopodium album; details: 0 to 100 scale
Text: as §1

ryegrass = type: in vivo, Lolium multiflorum; details: 0 to 100 scale
Text: as §1

wild oat = type: in vivo, Avena fatua; details: 0 to 100 scale
Text: as §1

green foxtail = type: in vivo, Setaria viridis; details: 0 to 100 scale
Text: as §1

winter wheat = type: in vivo, Triticum aestivum cv. ‘Talent’; details: 0 to 100 scale
Text: as §1

In the case of `C#CCOc1cc(-c2nn3c(c2Br)CCCC3)c(F)cc1Cl` [Compound 26], the “Persn Speedwell plant response rating” value (speedwell) is reported as 100, the “Winter Barley plant response rating” value (winter barley; POSTEMERGENCE, Rate 4 g/ha) is reported as 0 and the “Winter Barley plant response rating” value (winter barley; POSTEMERGENCE, Rate 8 g/ha) is reported as 0. The “Winter Barley plant response rating” value (winter barley; POSTEMERGENCE, Rate 16 g/ha) was 0, the “Winter Barley plant response rating” value (winter barley; POSTEMERGENCE, Rate 32 g/ha) was 20 and the “Winter Barley plant response rating” value (winter barley; POSTEMERGENCE, Rate 64 g/ha) was 30. The “Winter Barley plant response rating” value (winter barley; POSTEMERGENCE, Rate 125 g/ha) was 30, the “Winter Barley plant response rating” value (winter barley; POSTEMERGENCE, Rate 250 g/ha) was 30 and the “Winter Barley plant response rating” value (winter barley; PREEMERGENCE, Rate 4 g/ha) was 0. The “Winter Barley plant response rating” value (winter barley; PREEMERGENCE, Rate 8 g/ha) was 0, the “Winter Barley plant response rating” value (winter barley; PREEMERGENCE, Rate 16 g/ha) was 0 and the “Winter Barley plant response rating” value (winter barley; PREEMERGENCE, Rate 32 g/ha) was 0. The “Winter Barley plant response rating” value (winter barley; PREEMERGENCE, Rate 64 g/ha) was 0, the “Winter Barley plant response rating” value (winter barley; PREEMERGENCE, Rate 125 g/ha) was 15 and the “Winter Barley plant response rating” value (winter barley; PREEMERGENCE, Rate 250 g/ha) was 20. For the same molecule, the “Chickweed plant response rating” value (chickweed; POSTEMERGENCE, Rate 4 g/ha) was 30, the “Chickweed plant response rating” value (chickweed; POSTEMERGENCE, Rate 8 g/ha) was 40 and the “Chickweed plant response rating” value (chickweed; POSTEMERGENCE, Rate 16 g/ha) was 100. The “Chickweed plant response rating” value (chickweed; POSTEMERGENCE, Rate 32 g/ha) was 90, the “Chickweed plant response rating” value (chickweed; POSTEMERGENCE, Rate 64 g/ha) was 100 and the “Chickweed plant response rating” value (chickweed; POSTEMERGENCE, Rate 125 g/ha) was 100. The “Chickweed plant response rating” value (chickweed; POSTEMERGENCE, Rate 250 g/ha) was 100, the “Chickweed plant response rating” value (chickweed; PREEMERGENCE, Rate 4 g/ha) was 0 and the “Chickweed plant response rating” value (chickweed; PREEMERGENCE, Rate 8 g/ha) was 0. The “Chickweed plant response rating” value (chickweed; PREEMERGENCE, Rate 16 g/ha) was 45, the “Chickweed plant response rating” value (chickweed; PREEMERGENCE, Rate 32 g/ha) was 50 and the “Chickweed plant response rating” value (chickweed; PREEMERGENCE, Rate 64 g/ha) was 100. The “Chickweed plant response rating” value (chickweed; PREEMERGENCE, Rate 125 g/ha) was 100, the “Chickweed plant response rating” value (chickweed; PREEMERGENCE, Rate 250 g/ha) was 100 and the “Lambsquarters plant response rating” value (lambsquarters; POSTEMERGENCE, Rate 8 g/ha) was 50. The “Lambsquarters plant response rating” value (lambsquarters; POSTEMERGENCE, Rate 16 g/ha) was 50, the “Lambsquarters plant response rating” value (lambsquarters; POSTEMERGENCE, Rate 32 g/ha) was 100 and the “Lambsquarters plant response rating” value (lambsquarters; POSTEMERGENCE, Rate 64 g/ha) was 100. For the same molecule, the “Lambsquarters plant response rating” value (lambsquarters; POSTEMERGENCE, Rate 125 g/ha) was 100, the “Lambsquarters plant response rating” value (lambsquarters; POSTEMERGENCE, Rate 250 g/ha) was 100 and the “Lambsquarters plant response rating” value (lambsquarters; PREEMERGENCE, Rate 4 g/ha) was 0. For the same molecule, the “Lambsquarters plant response rating” value (lambsquarters; PREEMERGENCE, Rate 8 g/ha) was 70, the “Lambsquarters plant response rating” value (lambsquarters; PREEMERGENCE, Rate 16 g/ha) was 80 and the “Lambsquarters plant response rating” value (lambsquarters; PREEMERGENCE, Rate 32 g/ha) was 100. For the same molecule, the “Lambsquarters plant response rating” value (lambsquarters; PREEMERGENCE, Rate 64 g/ha) was 100, the “Lambsquarters plant response rating” value (lambsquarters; PREEMERGENCE, Rate 125 g/ha) was 100 and the “Ryegrass plant response rating” value (ryegrass; POSTEMERGENCE, Rate 4 g/ha) was 0. The “Ryegrass plant response rating” value (ryegrass; POSTEMERGENCE, Rate 8 g/ha) was 0, the “Ryegrass plant response rating” value (ryegrass; POSTEMERGENCE, Rate 16 g/ha) was 0 and the “Ryegrass plant response rating” value (ryegrass; POSTEMERGENCE, Rate 32 g/ha) was 5. For the same molecule, the “Ryegrass plant response rating” value (ryegrass; POSTEMERGENCE, Rate 64 g/ha) was 20, the “Ryegrass plant response rating” value (ryegrass; POSTEMERGENCE, Rate 125 g/ha) was 30 and the “Ryegrass plant response rating” value (ryegrass; POSTEMERGENCE, Rate 250 g/ha) was 55. For the same molecule, the “Ryegrass plant response rating” value (ryegrass; PREEMERGENCE, Rate 4 g/ha) was 0, the “Ryegrass plant response rating” value (ryegrass; PREEMERGENCE, Rate 8 g/ha) was 0 and the “Ryegrass plant response rating” value (ryegrass; PREEMERGENCE, Rate 16 g/ha) was 0. The “Ryegrass plant response rating” value (ryegrass; PREEMERGENCE, Rate 32 g/ha) was 20, the “Ryegrass plant response rating” value (ryegrass; PREEMERGENCE, Rate 64 g/ha) was 40 and the “Ryegrass plant response rating” value (ryegrass; PREEMERGENCE, Rate 125 g/ha) was 60. For the same molecule, the “Ryegrass plant response rating” value (ryegrass; PREEMERGENCE, Rate 250 g/ha) was 80, the “Wild oat (1) plant response rating” value (wild oat; POSTEMERGENCE, Rate 4 g/ha, stage (1) two to three leaves) was 0 and the “Wild oat (2) plant response rating” value (wild oat; POSTEMERGENCE, Rate 4 g/ha, stage (2) approximately four leaves or initial tillering) was 0. The “Wild oat (1) plant response rating” value (wild oat; POSTEMERGENCE, Rate 8 g/ha, stage (1) two to three leaves) was 0, the “Wild oat (2) plant response rating” value (wild oat; POSTEMERGENCE, Rate 8 g/ha, stage (2) approximately four leaves or initial tillering) was 0 and the “Wild oat (1) plant response rating” value (wild oat; POSTEMERGENCE, Rate 16 g/ha, stage (1) two to three leaves) was 0. For the same molecule, the “Wild oat (2) plant response rating” value (wild oat; POSTEMERGENCE, Rate 16 g/ha, stage (2) approximately four leaves or initial tillering) was 0, the “Wild oat (1) plant response rating” value (wild oat; POSTEMERGENCE, Rate 32 g/ha, stage (1) two to three leaves) was 25 and the “Wild oat (2) plant response rating” value (wild oat; POSTEMERGENCE, Rate 32 g/ha, stage (2) approximately four leaves or initial tillering) was 15. For the same molecule, the “Wild oat (1) plant response rating” value (wild oat; POSTEMERGENCE, Rate 64 g/ha, stage (1) two to three leaves) was 40, the “Wild oat (2) plant response rating” value (wild oat; POSTEMERGENCE, Rate 64 g/ha, stage (2) approximately four leaves or initial tillering) was 15 and the “Wild oat (1) plant response rating” value (wild oat; POSTEMERGENCE, Rate 125 g/ha, stage (1) two to three leaves) was 45. The “Wild oat (2) plant response rating” value (wild oat; POSTEMERGENCE, Rate 125 g/ha, stage (2) approximately four leaves or initial tillering) was 20, the “Wild oat (1) plant response rating” value (wild oat; POSTEMERGENCE, Rate 250 g/ha, stage (1) two to three leaves) was 50 and the “Wild oat (2) plant response rating” value (wild oat; POSTEMERGENCE, Rate 250 g/ha, stage (2) approximately four leaves or initial tillering) was 30. For the same molecule, the “Wild oat (1) plant response rating” value (wild oat; PREEMERGENCE, Rate 4 g/ha, Wild oat (1)) was 0, the “Wild oat (2) plant response rating” value (wild oat; PREEMERGENCE, Rate 4 g/ha, Wild oat (2)) was 0 and the “Wild oat (1) plant response rating” value (wild oat; PREEMERGENCE, Rate 8 g/ha, Wild oat (1)) was 0. For the same molecule, the “Wild oat (2) plant response rating” value (wild oat; PREEMERGENCE, Rate 8 g/ha, Wild oat (2)) was 0, the “Wild oat (1) plant response rating” value (wild oat; PREEMERGENCE, Rate 16 g/ha, Wild oat (1)) was 0 and the “Wild oat (2) plant response rating” value (wild oat; PREEMERGENCE, Rate 16 g/ha, Wild oat (2)) was 0. For the same molecule, the “Wild oat (1) plant response rating” value (wild oat; PREEMERGENCE, Rate 32 g/ha, Wild oat (1)) was 0, the “Wild oat (2) plant response rating” value (wild oat; PREEMERGENCE, Rate 32 g/ha, Wild oat (2)) was 0 and the “Wild oat (1) plant response rating” value (wild oat; PREEMERGENCE, Rate 64 g/ha, Wild oat (1)) was 10. For the same molecule, the “Wild oat (2) plant response rating” value (wild oat; PREEMERGENCE, Rate 64 g/ha, Wild oat (2)) was 20, the “Wild oat (1) plant response rating” value (wild oat; PREEMERGENCE, Rate 125 g/ha, Wild oat (1)) was 20 and the “Wild oat (2) plant response rating” value (wild oat; PREEMERGENCE, Rate 125 g/ha, Wild oat (2)) was 30. The “Wild oat (1) plant response rating” value (wild oat; PREEMERGENCE, Rate 250 g/ha, Wild oat (1)) was 30, the “Wild oat (2) plant response rating” value (wild oat; PREEMERGENCE, Rate 250 g/ha, Wild oat (2)) was 50 and the “Green foxtail plant response rating” value (green foxtail; POSTEMERGENCE, Rate 4 g/ha) was 0. The “Green foxtail plant response rating” value (green foxtail; POSTEMERGENCE, Rate 8 g/ha) was 0, the “Green foxtail plant response rating” value (green foxtail; POSTEMERGENCE, Rate 16 g/ha) was 50 and the “Green foxtail plant response rating” value (green foxtail; POSTEMERGENCE, Rate 32 g/ha) was 60. The “Green foxtail plant response rating” value (green foxtail; POSTEMERGENCE, Rate 64 g/ha) was 70, the “Green foxtail plant response rating” value (green foxtail; POSTEMERGENCE, Rate 125 g/ha) was 80 and the “Green foxtail plant response rating” value (green foxtail; POSTEMERGENCE, Rate 250 g/ha) was 50. For the same molecule, the “Green foxtail plant response rating” value (green foxtail; PREEMERGENCE, Rate 4 g/ha) was 0, the “Green foxtail plant response rating” value (green foxtail; PREEMERGENCE, Rate 8 g/ha) was 0 and the “Green foxtail plant response rating” value (green foxtail; PREEMERGENCE, Rate 16 g/ha) was 20. For the same molecule, the “Green foxtail plant response rating” value (green foxtail; PREEMERGENCE, Rate 32 g/ha) was 50, the “Green foxtail plant response rating” value (green foxtail; PREEMERGENCE, Rate 64 g/ha) was 100 and the “Green foxtail plant response rating” value (green foxtail; PREEMERGENCE, Rate 125 g/ha) was 100. For the same molecule, the “Green foxtail plant response rating” value (green foxtail; PREEMERGENCE, Rate 250 g/ha) was 100, the “Wheat (Winter) plant response rating” value (winter wheat; POSTEMERGENCE, Rate 4 g/ha) was 0 and the “Wheat (Winter) plant response rating” value (winter wheat; POSTEMERGENCE, Rate 8 g/ha) was 0. The “Wheat (Winter) plant response rating” value (winter wheat; POSTEMERGENCE, Rate 16 g/ha) was 0, the “Wheat (Winter) plant response rating” value (winter wheat; POSTEMERGENCE, Rate 32 g/ha) was 15 and the “Wheat (Winter) plant response rating” value (winter wheat; POSTEMERGENCE, Rate 64 g/ha) was 20. The “Wheat (Winter) plant response rating” value (winter wheat; POSTEMERGENCE, Rate 125 g/ha) was 30, the “Wheat (Winter) plant response rating” value (winter wheat; POSTEMERGENCE, Rate 250 g/ha) was 20 and the “Wheat (Winter) plant response rating” value (winter wheat; PREEMERGENCE, Rate 4 g/ha) was 0. For the same molecule, the “Wheat (Winter) plant response rating” value (winter wheat; PREEMERGENCE, Rate 8 g/ha) was 0, the “Wheat (Winter) plant response rating” value (winter wheat; PREEMERGENCE, Rate 16 g/ha) was 0 and the “Wheat (Winter) plant response rating” value (winter wheat; PREEMERGENCE, Rate 32 g/ha) was 0. The “Wheat (Winter) plant response rating” value (winter wheat; PREEMERGENCE, Rate 64 g/ha) was 0, the “Wheat (Winter) plant response rating” value (winter wheat; PREEMERGENCE, Rate 125 g/ha) was 10 and the “Wheat (Winter) plant response rating” value (winter wheat; PREEMERGENCE, Rate 250 g/ha) was 20.
